“And” between values parts separate entries of the source, which are not always exact repeats. Identical values can stand only once.
How the values were obtained:
[1] = biological target: T1, P450 11A1 (CYP11A1) (Homo sapiens, UniProt P05108); experiment: Kinetic isotope effect assay, disappearance of d0- and d3-cholesterol under single-turnover conditions; format: biochemical; conditions: human, pH 7.4; 5 μM P450, 5 μM sterol, low Adx single-turnover; read-out: sterol half-life (t1/2) (converted)
T1 construct: M A S T R S P R P F N E I P S P G D N; Met-Ala (N-terminal start residues in place of the transit peptide and Ile40) (N); made in house; host or cells: E. coli (P450 11A1 in C41(DE3); Adx and AdR in E. coli)
T1 sequence (P05108 41-521 limits assumed): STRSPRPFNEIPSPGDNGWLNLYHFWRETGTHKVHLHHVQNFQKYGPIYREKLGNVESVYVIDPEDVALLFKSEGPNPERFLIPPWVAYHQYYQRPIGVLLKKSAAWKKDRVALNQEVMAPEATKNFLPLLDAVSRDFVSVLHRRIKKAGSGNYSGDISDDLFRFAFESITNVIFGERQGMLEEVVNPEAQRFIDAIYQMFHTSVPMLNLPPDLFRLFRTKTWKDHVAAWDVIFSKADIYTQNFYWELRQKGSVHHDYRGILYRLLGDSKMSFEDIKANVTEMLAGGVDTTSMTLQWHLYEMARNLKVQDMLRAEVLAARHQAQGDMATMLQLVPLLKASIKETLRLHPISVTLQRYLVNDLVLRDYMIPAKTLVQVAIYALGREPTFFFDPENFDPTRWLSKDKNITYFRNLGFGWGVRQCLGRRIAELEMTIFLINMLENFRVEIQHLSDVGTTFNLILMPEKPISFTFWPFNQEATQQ
T1 sequence (P00257 59-186 partner): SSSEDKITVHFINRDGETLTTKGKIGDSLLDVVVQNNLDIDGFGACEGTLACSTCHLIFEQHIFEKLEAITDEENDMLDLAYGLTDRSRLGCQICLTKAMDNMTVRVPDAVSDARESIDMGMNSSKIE
Experimental: P450 11A1 incubations were performed under (low Adx) single-turnover conditions (5 μM P450, 5 μM cholesterol; see Experimental procedures) with d0- (authentic, unlabeled) and d3-cholesterol, and the disappearance of each was monitored by LC-atmospheric pressure chemical ionization-MS (m/z 369.3516 and 372.3705, respectively). In theory, if C-H bond breaking were rate-limiting in the initial hydroxylation then the rate of d3-cholesterol consumption would be slower relative to the d0 compound due to the increased strength of a C-D bond.
The kinetic isotope experiment was designed similarly to the benchtop experiment described above, but with some modifications. P450 11A1 (5 μM) was reconstituted with the redox partners AdR (10 μM) and Adx (5 μM) on ice (10 min) prior to dilution in potassium Hepes (50 mM, pH 7.4) and H2O and addition of d3-cholesterol substrate (5 μM). […]
Samples (held at 4 °C) were injected (10 μl) using a Waters Acquity UPLC system on a Acquity BEH octadecylsilane (C18) 2.1 mm × 50 mm (1.7 μm) UPLC column (held at 25 °C) with a flow rate of 0.5 ml min^−1 using an isocratic mobile phase of CH3CN (only). The column eluate was subjected to atmospheric pressure chemical ionization and analyzed using a Thermo Fisher Scientific LTQ XL Orbitrap mass spectrometer instrument operating in positive mode, scanning from m/z 100 to 500, with a resolution setting of 120,000. […]

[2] = biological target: T2, human P450 11A1 (Homo sapiens, UniProt P05108); experiment: Fluorescence titration of Alexa 488-Adx with P450 11A1 ± cholesterol; format: binding; parameters: M A S T R S P R P F N E I P S P G D N; Met-Ala (N-terminal start residues in place of the transit peptide and Ile40) (N); made in house; host or cells: E. coli (P450 11A1 in C41(DE3); Adx and AdR in E. coli)
T2 sequence (P05108 41-521 limits assumed): T1 sequence (P05108 41-521 limits assumed)
T2 sequence (P00257 59-186 partner): T1 sequence (P00257 59-186 partner)
Experimental: Because Adx has been reported to stimulate the binding of P450 11A1 to its substrates ([12], [44]), we examined whether the binding of detergent-free P450 11A1 to Adx is enhanced by cholesterol, utilizing our fluorescently-labeled Adx construct (Alexa 488-Adx) ([45]). A 1:1 M complex of P450 11A1 and cholesterol was gradually titrated into a solution containing Alexa 488-Adx (50 nM), and the quenching of Adx fluorescence was monitored over the course of the reaction.
Figure 7 Effect of cholesterol on P450 11A1 binding to Adx.A, titration of P450 11A1 (0–400 nM) into Alexa 488-Adx (50 nM) gradually quenched the fluorophore and yielded a decrease in fluorescence output (between 500 and 600 nm). Spectra were collected after each addition of P450. B, normalized fluorescence (F/F0) of titrations of P450 11A1 with (▪, red) and without (•, black) cholesterol (equimolar). A 1:1 M complex of P450 and cholesterol was used as titrant, where indicated. […]
A previously described Alexa Fluor 488-labeled Adx construct and experimental protocol were used ([45]) to perform the fluorescence titration of P450 11A1 with Adx. […] P450 11A1 was gradually titrated (0–0.4 μM) into the cuvette (to a maximum of 2% (v/v)), and spectra were recorded using an OLIS DM-45 spectrofluorometer (1.24 mm slit width) with fluorophore excitation at 493 nm and scanning emission spectra from 500 to 600 nm. […]

In the case of `CC(C)CCC[C@@H](C)[C@H]1CC[C@H]2[C@@H]3CC=C4C[C@@H](O)CC[C@]4(C)[C@H]3CC[C@]12C` [Cholesterol], the half-life at 5 μM [1] is reported as 0.333 min, the “stimulation of binding of P450 11A1 to Adx” value ([2]; equimolar cholesterol) is reported as ~5 fold and ~4.5 fold and the “change in Gibbs free energy of Adx binding” value ([2]; from the 4.5-fold change in Kd) is reported as under 1 kcal/mol.
